Reference: US9169252B2 (BRISTOL-MYERS SQUIBB COMPANY, priority 2014, dated 2015)
Read-outs that look alike come from different tables or passages of the source.

Columns and labels:
[1] = molecular target: IRAK4 (Homo sapiens (Human), UniProt Q9NWZ3); assay: IRAK4 Inhibition Assay; type: biochemical
Procedure, shortened: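 Mobility-shift readout: fluorescent substrate and phosphoproduct resolved electrophoretically on Caliper LabChip 3000 after EDTA quench (35 mM). Enzyme reaction of IRAK4, substrates and test compound ran 60 min at room temperature.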

[2] = test system: TLR2 induced IL-6 in peripheral blood mononuclear cells (PBMCs); assay: PBMC TLR2 Induced IL-6 Assay; type: cell-based, human; settings: IL-6 by ELISA; for EC50: read-out: Cell EC50; for IC50: read-out: Cell IC50
Procedure, shortened: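 Lipoteichoic acid at 10 µg/ml served as TLR2 stimulus for 5 hours, following a 30-minute compound pretreatment at 37° C. Cells were Ficoll-isolated human PBMCs, 250000 cells/well, cultured in RPMI plus 10% heat-inactivated FCS.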

[3] = Homo sapiens, PBMC, PBMC TLR2 Induced IL-6 Assay, lipoteichoic acid stimulation
[4] = IRAK4 Inhibition Assay, ATP 500 μM, read-out: IRAK4 IC50
[5] = ATP 500 μM, IRAK4 0.6 nM, read-out: IRAK4 IC50
[6] = Homo sapiens, PBMC, human PBMCs, lipoteichoic acid stimulated

Chain of IRAK4 (Q9NWZ3 whole entry, species assumed): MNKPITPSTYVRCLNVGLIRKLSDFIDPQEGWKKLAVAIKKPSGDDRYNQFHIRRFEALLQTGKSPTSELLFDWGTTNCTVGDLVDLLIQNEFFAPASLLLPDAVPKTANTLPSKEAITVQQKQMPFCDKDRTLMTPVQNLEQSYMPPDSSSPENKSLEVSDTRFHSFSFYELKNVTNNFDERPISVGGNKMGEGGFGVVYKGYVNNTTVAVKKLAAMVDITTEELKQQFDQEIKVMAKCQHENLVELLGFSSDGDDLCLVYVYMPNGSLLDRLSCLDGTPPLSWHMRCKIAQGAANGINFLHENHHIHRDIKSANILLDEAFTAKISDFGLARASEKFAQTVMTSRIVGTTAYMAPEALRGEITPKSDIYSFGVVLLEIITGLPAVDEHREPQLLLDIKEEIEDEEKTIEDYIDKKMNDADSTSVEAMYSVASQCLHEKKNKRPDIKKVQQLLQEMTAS

SMILES	EC50 [2, 3] [nM]	IC50 [1, 4] [nM]	IC50 [1, 5] [nM]	also measured
CC(C)(O)[C@H](F)CNC(=O)c1cnc(-n2ccc3cc(C#N)cnc32)cc1NC1CCCC(F)(F)C1O (single isomer, unassigned) [Example 112]	159	–	–	IC50 ([1]; IRAK4 IC50): 4.4 nM
CC(C)Nc1cc(-n2ncc3cc(C#N)cnc32)ncc1C(=O)Nc1ccc(N2CCOCC2)nc1 [Example 216]	253	4.5	–	–
CC(C)(CN)CNc1cc(-n2ncc3cc(C#N)cnc32)ncc1C(=O)NC[C@@H](F)C(C)(C)O [Example 585]	–	–	8.5	IC50 [2, 6]: 147 nM
CC(C)Nc1cc(-n2ccc3cc(CNC(=O)CC4CCOCC4)cnc32)ncc1C(=O)NC[C@@H](F)C(C)(C)O [Example 518]	–	–	14	IC50 [2, 6]: 94 nM
CC(C)(O)[C@H](F)CNC(=O)c1cnc(-n2ccc3cc(C#N)cnc32)cc1Nc1cccc(C#N)c1 [Example 66, (R)-6-(5-cyano-1H-pyrrolo[2,3-b]pyridin-1-yl)-4-((3-cyanophenyl)amino)-N-(2-fluoro-3-hydroxy-3-methylbutyl)nicotinamide]	201	1.7	–	–
CC(C)(O)[C@H](F)CNC(=O)c1cnc(-n2ncc3cc(C#N)cnc32)cc1Nc1ccn(CC(F)F)n1 [Example 407]	–	–	3.1	IC50 [2, 6]: 287 nM
C[C@@H](F)CNc1cc(-n2ccc3cc(C#N)cnc32)ncc1C(=O)NC[C@@H](F)C(C)(C)O [Example 506]	–	–	1.5	IC50 [2, 6]: 65 nM
CC(C)Nc1cc(-n2ncc3cc(C#N)c(N)nc32)ncc1C(=O)NCCC(C)(C)F [Example 307]	–	2	–	IC50 [2, 3]: 127 nM
CC(C)(O)[C@H](F)CNC(=O)c1cnc(-n2ccc3cc(C#N)cnc32)cc1N[C@@H]1CCN(S(C)(=O)=O)C1 [Example 465]	–	–	1.3	EC50 [2, 6]: 7 nM; IC50 [2, 6]: 23 nM
CC(C)Nc1cc(-n2ccc3cc(C#N)cnc32)ncc1C(=O)N[C@H]1CC[C@H](O)CC1 [Example 98, 6-(5-cyano-1H-pyrrolo[2,3-b]pyridin-1-yl)-N-((trans)-4-hydroxycyclohexyl)-4-(isopropylamino)nicotinamide]	176	3.3	–	–
CC(C)(F)[C@H](F)CNC(=O)c1cnc(-n2ccc3cc(C#N)cnc32)cc1Nc1cccc(O)c1 [Example 517]	–	–	1.2	IC50 [2, 6]: 113 nM
CC(C)(O)[C@H](F)CNC(=O)c1cnc(-n2ncc3cc(C#N)cnc32)cc1NCC(C)(C)N1CCOCC1 [Example 570]	–	–	10.7	EC50 [2, 6]: 425 nM
CCCNc1cc(-n2ccc3cc(C#N)cnc32)ncc1C(=O)NC[C@@H](F)C(C)(C)O [Example 18]	62	2.1	–	–
CC(C)n1cc(Nc2cc(-n3ncc4cc(Cl)cnc43)ncc2C(=O)NC[C@@H](F)C(C)(C)O)cn1 [Example 358]	–	3.5	–	IC50 [2, 3]: 257 nM
CC(C)Nc1cc(-n2ncc3cc(C#N)cnc32)ncc1C(=O)NCCc1ccc(N(S(C)(=O)=O)S(C)(=O)=O)cc1 [Example 269]	–	3.6	–	IC50 [2, 3]: 171 nM
CC1(CNc2cc(-n3ccc4cc(C#N)cnc43)ncc2C(=O)NC[C@@H](F)C(C)(C)O)COC1 [Example 20, (R)-6-(5-cyano-1H-pyrrolo[2,3-b]pyridin-1-yl)-N-(2-fluoro-3-hydroxy-3-methylbutyl)-4-(((3-methyloxetan-3-yl)methyl)amino)nicotinamide]	497	5.7	–	–
CC(C)Nc1cc(-n2ccc3cncnc32)ncc1C(=O)NCCC(C)(C)O [Example 44, N-(3-hydroxy-3-methylbutyl)-4-(isopropylamino)-6-(7H-pyrrolo[2,3-d]pyrimidin-7-yl)nicotinamide]	98	4.2	–	–
CC(C)(O)[C@H](F)CNC(=O)c1cnc(-n2ncc3cc(C#N)cnc32)cc1Nc1cnn(CC(F)(F)F)c1 [Example 353]	–	1.7	–	IC50 [2, 3]: 18 nM
CC(C)(O)[C@H](F)CNC(=O)c1cnc(-n2ccc3cc(C#N)cnc32)cc1NCC1CCOCC1 [Example 482]	–	–	17.4	EC50 [2, 6]: 433 nM
CCNC(=O)c1cnc(-n2ncc3cc(C#N)cnc32)cc1Nc1cnn(CC(F)F)c1 [Example 393]	–	3.5	–	IC50 [2, 3]: 250 nM
CC(C)(O)[C@H](F)CNC(=O)c1cnc(-n2ccc3cc(C#N)cnc32)cc1Nc1ccc(-n2ccnc2)cc1 [Example 471]	–	–	10.1	EC50 [2, 6]: 194 nM

SMILES	EC50 [2, 3] [nM]	IC50 [1, 4] [nM]	IC50 [1, 5] [nM]	also measured
CNC(=O)[C@H]1CC[C@H](NC(=O)c2cnc(-n3ncc4cc(Cl)cnc43)cc2NC(C)C)CC1 [Example 152, 6-(5-chloro-1H-pyrazolo[3,4-b]pyridin-1-yl)-4-(isopropylamino)-N-((trans)-4-(methylcarbamoyl)cyclohexyl)nicotinamide]	294	5.6	–	–
CC(C)(O)[C@H](F)CNC(=O)c1cnc(-n2ccc3cc(C#N)cnc32)cc1Nc1ccc(C(N)=O)cc1 [Example 60, (R)-4-((4-carbamoylphenyl)amino)-6-(5-cyano-1H-pyrrolo[2,3-b]pyridin-1-yl)-N-(2-fluoro-3-hydroxy-3-methylbutyl)nicotinamide]	24	1.8	–	–
CC(C)(C)OC(=O)N1CC(Nc2cc(-n3ccc4cc(C#N)cnc43)ncc2C(=O)NC[C@@H](F)C(C)(C)O)C1 [Example 457]	–	–	10.3	EC50 [2, 6]: 458 nM; IC50 [2, 6]: 1240 nM
CC(C)Nc1cc(-n2ncc3cc(Cl)cnc32)ncc1C(=O)N[C@H]1CC[C@H](C(C)(C)O)CC1 [Example 150, 6-(5-chloro-1H-pyrazolo[3,4-b]pyridin-1-yl)-N-((trans)-4-(2-hydroxypropan-2-yl)cyclohexyl)-4-(isopropylamino)nicotinamide]	593	9	–	–
CC(C)Nc1cc(-n2ncc3cc(C#N)cnc32)ncc1C(=O)Nc1cnn(C2CCOCC2)c1 [Example 271]	–	15.9	–	IC50 [2, 3]: 176 nM
CCNc1cc(-n2ncc3cc(C#N)cnc32)ncc1C(=O)NC[C@@H](F)C(C)(C)O [Example 568]	–	–	8.9	EC50 [2, 6]: 661 nM; IC50 [2, 6]: 1370 nM
CC(C)(O)[C@H](F)CNC(=O)c1cnc(-n2ncc3cc(C#N)cnc32)cc1Nc1cnn(C2CCOCC2)c1 [Example 349]	–	3.3	–	IC50 [2, 3]: 180 nM
CC(C)(O)[C@H](F)CNC(=O)c1cnc(-n2ccc3cc(C#N)cnc32)cc1N[C@@H]1CCN(c2ncc(F)cn2)C1 [Example 449]	–	–	1.5	EC50 [2, 6]: 82 nM; IC50 [2, 6]: 59 nM
CC(C)(O)[C@H](F)CNC(=O)c1cnc(-n2ncc3cc(F)cnc32)cc1NC1CCC(F)C1 (single isomer, unassigned) [Example 619]	–	–	4	EC50 ([2]; human PBMCs, lipoteichoic acid stimulated): 119 nM
C[C@H](F)CNc1cc(-n2ccc3cc(C#N)cnc32)ncc1C(=O)NC[C@@H](F)C(C)(C)O [Example 507]	–	–	1.4	IC50 [2, 6]: 374 nM
CC(C)Nc1cc(-n2ccc3cc(C#N)cnc32)ncc1C(=O)N[C@H]1CC[C@](O)(c2ccccn2)CC1 [Example 178, 6-(5-cyano-1H-pyrrolo[2,3-b]pyridin-1-yl)-N-((1s,4s)-4-hydroxy-4-(pyridin-2-yl)cyclohexyl)-4-(isopropylamino)nicotinamide]	100	3.7	–	–
CC(C)(O)[C@H](F)CNC(=O)c1cnc(-n2ccc3cc(C#N)cnc32)cc1NC1CCN(S(C)(=O)=O)CC1 [Example 463]	–	–	1.7	EC50 [2, 6]: 23 nM
CCOC(=O)NCc1cnc2c(ccn2-c2cc(NC(C)C)c(C(=O)NC[C@@H](F)C(C)(C)O)cn2)c1 [Example 501]	–	–	5.4	IC50 [2, 6]: 332 nM
CCn1cc(Nc2cc(-n3ncc4cc(Cl)cnc43)ncc2C(=O)NC[C@@H](F)C(C)(C)O)cn1 [Example 357]	–	1.7	–	IC50 [2, 3]: 67 nM
CC(C)(O)C(F)(F)CNC(=O)c1cnc(-n2ncc3cc(C#N)cnc32)cc1Nc1cnn(CC(F)F)c1 [Example 397]	–	–	6.6	IC50 [2, 6]: 210 nM
CC(C)Nc1cc(-n2ccc3cc(C#N)cnc32)ncc1C(=O)NC1CCC2(CC1)NC(=O)NC2=O (stereo not drawn) [Example 183, 6-(5-Cyano-1H-pyrrolo[2,3-b]pyridin-1-yl)-N-(2,4-dioxo-1,3-diazaspiro[4.5]decan-8-yl)-4-(isopropylamino)nicotinamide]	179	4.1	–	–
CC(C)Nc1cc(-n2ccc3cc(C#N)cnc32)ncc1C(=O)N[C@@H]1CC=C(c2ccncc2)CC1 [Example 184, (S)-6-(5-Cyano-1H-pyrrolo[2,3-b]pyridin-1-yl)-4-(isopropylamino)-N-(4-(pyridin-4-yl)cyclohex-3-en-1-yl)nicotinamide]	436	5.5	–	–
CC(C)(O)[C@H](F)CNC(=O)c1cnc(-n2ccc3cc(C#N)cnc32)cc1Nc1cccc(C#N)c1F [Example 430]	–	–	2.1	EC50 [2, 6]: 208 nM
CC(C)Nc1cc(-n2ccc3cc(C#N)cnc32)ncc1C(=O)N[C@H]1CC[C@](O)(c2nccs2)CC1 [Example 175, 6-(5-cyano-1H-pyrrolo[2,3-b]pyridin-1-yl)-N-((1s,4s)-4-hydroxy-4-(thiazol-2-yl)cyclohexyl)-4-(isopropylamino)nicotinamide]	113	5	–	–
CC(C)(O)[C@H](F)CNC(=O)c1cnc(-n2ccc3cc(C#N)cnc32)cc1NC1CCCC1 [Example 10, (R)-6-(5-cyano-1H-pyrrolo[2,3-b]pyridin-1-yl)-4-(cyclopentylamino)-N-(2-fluoro-3-hydroxy-3-methylbutyl)nicotinamide]	63	1.8	–	IC50 [2, 3]: 79 nM
